# Test results reported in patent publication US20120178682A1, “GB1 Peptidic Compounds and Methods for Making and Using the Same” (priority 2010, published 2012).
# Bridge positions count the residues as written; N and C are the ends. Square brackets hold non-standard residues; d marks the D form. Ends that are not written are not given here.
# Legend:
# D-VEGF [1] = assay: SPR affinity measurements of GB1 peptidic compounds on immobilized D-VEGF; type: binding; settings: target D-VEGF
# Description: VEGF binding compounds were expressed. Binding affinities were measured using the […] SPR system. SPR analysis was performed on a ProteOn XPR36 Protein Interaction Array System (BioRad). Chemically synthesized L-VEGF, D-VEGF and VEGF165 (Peprotech) were immobilized in 50 mM Sodium Acetate (pH 5.5) to a non-dilute EDAC/sulfo-NHS activated GLC surface on separate channels using a flow rate of […] for 5 minutes in the vertical direction. Immobilization levels were monitored to ensure immobilization of approximately 500 response units of each protein. The domains were then stabilized with PBS for 30 seconds and 0.85% H3PO4 for 18 seconds each at […]. GB1 variants were diluted in PBS plus 0.05% Tween 20 at a starting concentration of 200 nM. The binders were further diluted with PBST 2-fold in series to produce 5 concentrations of variants. A PBST blank was also included. GB1 variant injection parameters were: […], 60 seconds contact time, and 600 seconds dissociation time, in the horizontal direction. VEGF proteins were regenerated with an injection of 0.85% H3PO4 at a flow rate of […] followed by a PBST wash of 30 seconds at […] flow rate.
# D-VEGF [2] = assay: Competition assay (phage ELISA) with VEGF binding peptides v114 and v128a on D-VEGF; settings: 100 μM peptide; anti-M13-HRP detection
# Description: (§1) To test whether the D-VEGF and L-VEGF binders have the potential to block VEGF-VEGFR1 interaction, a competition assay was performed using VEGF binding peptides v114 and v128a described by Fairbrother et al. (“Novel peptides selected to bind vascular endothelial growth factor target the receptor-binding site,” Biochemistry, 1998, 37, 17754-64). These peptides block the binding of VEGF to VEGFR1 and inhibit angiogenesis.
# (§2) The peptides v114 ([…]-NH2; SEQ ID NO:296) and v128a ([…]-NH2; SEQ ID NO:297) were prepared in both D- and L-forms (CSBio, Inc.). The following protocol was used in the competitive binding assays: • 1. 5 wells of NUNC 96 well maxisorb plate were coated with D-VEGF (5 μg/ml in PBS) for testing clone E01. Similarly 5 wells were coated with L-VEGF (5 μg/ml in PBS) for each of E01 and B03. The plate was incubated at room temperature with gentle shaking for 2 hours; • 2. The plates were blocked with PBS+0.2% BSA (5 wells+1 extra well for control) for 1 hr at room temperature with gentle shaking; • 3. In the meantime, peptides were diluted in PBT buffer to a concentration of 150 μM; • 4. The plate was washed four times with PT buffer; • 5. 66 μl of each diluted peptide was added to 4 different wells coated with L or D-VEGF (depending on the clone tested). 66 μl of PBT was added to control wells (1 VEGF coated well+1 control well). Incubate for 30 min at room temperature with shaking; • 6. Add 33 μl of fresh phage supernatant from overnight culture to each of the six wells containing peptide solution. Incubate for 15 min at room temperature with shaking. • 7. Wash plate 6 times with PT buffer; • 8. Add 66 μl of anti-M13-HRP antibody (1:3000 dilution in PBT) to each well and incubate for 30 min at room temperature with shaking; • 9. Wash plate 4 times with PT buffer. Develop and read plates at 450 nm.
# Phage binding to L and D-VEGF was tested in the presence and absence of 100 μM of each peptide (e.g., at 100 times affinity to saturate VEGF) using anti-M13-HRP to detect the bound phage.
# [3] = Melting temperature (Tm) by circular dichroism (CD); type: physicochemical; settings: chemically synthesized compound; CD spectroscopy
# Text: 4.3 Determination of Melting Temperature (Tm) by Circular Dichroism (CD)
# D-VEGF [4] = assay: Phage ELISA after overnight incubation with GuHCl or urea; type: binding; settings: various concentrations of urea or GuHCl; phage incubated overnight
# Description: During screening for specific binding to target, the presence of a chaotropic agent/denaturant can help select clones with improved stability and affinity. Phage were incubated overnight in the presence of various concentrations of GuHCl and urea and assayed using an ELISA method. […] Various concentrations GuHCl were added to selection wells prior to elution with 100 mM HCl. The selected clones were identified by competitive ELISA and analyzed for IC50 using similar protocols to those described above.
# L-VEGF = biological target: T1, L-VEGF (Homo sapiens, UniProt P15692); assay: Competition assay (phage ELISA) with VEGF binding peptides v114 and v128a on L-VEGF; settings: 100 μM peptide; anti-M13-HRP detection
# T1 construct: Synthetic L-VEGF-A (8-109) was folded under the following conditions; made in house; host or cells: total chemical synthesis (SPPS plus native chemical ligation), no expression host
# T1 sequence (P15692 214-315): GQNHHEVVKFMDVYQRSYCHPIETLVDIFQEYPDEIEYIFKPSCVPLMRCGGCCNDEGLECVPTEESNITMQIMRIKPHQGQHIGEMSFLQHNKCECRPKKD
# Description: as §1
# as §2, with “Incubate for 30 min at room temperature with shaking; • 6. Add 33 μl of fresh phage supernatant from overnight culture to each of the six wells containing peptide solution. Incubate for 15 min at room temperature with shaking. • 7. Wash plate 6 times with PT buffer; • 8. Add 66 μl of anti-M13-HRP antibody (1:3000 dilution in PBT) to each well and incubate for 30 min at room temperature with shaking; • 9. Wash plate 4 times with PT buffer.” left out, “nm. […]” for “nm.”
# [5] = Table 2, GB1-E01 double mutants
substance,measurement,setting,value
"E01: pre-affinity matured parent D-VEGF binding GB1 clone, SEQ ID NO:79 (TYKLILNGKTLKGETTTEAVDVYDAFDVFFVYAASNFSDFDDWTYDDATKTFTVTE) [Clone E01]",Kd,D-VEGF [1]; Table 1,13.4 nM
same,Koff,D-VEGF [1]; Table 1,0.00347 s⁻¹
same,Kon,"D-VEGF [1]; Table 1, E01 point mutants expressed in E. coli",260000 M⁻¹ s⁻¹
same,Kd,D-VEGF [1]; [5],3.46 nM
same,Koff,D-VEGF [1]; [5],0.00117 s⁻¹
same,Kon,D-VEGF [1]; [5],338000 M⁻¹ s⁻¹
same,phage binding to D-VEGF in the presence of D-v114,D-VEGF [2],completely blocked
same,phage binding to D-VEGF in the presence of D-v128a,D-VEGF [2],partially blocked
same,"phage binding to D-VEGF in the presence of L-peptides (L-v114, L-v128a)",D-VEGF [2],do not inhibit
TYKLILNGKTLKGEFTLEAVDLFDAFDVFFVYAASNFSFFDDWTYDDATKTFTVTE ([dT][dY][dK][dL][dI][dL][dN]G[dK][dT][dL][dK]G[dE][dF][dT][dL][dE][dA][dV][dD][dL][dF][dD][dA][dF][dD][dV][dF][dF][dV][dY][dA][dA][dS][dN][dF][dS][dF][dF][dD][dD][dW][dT][dY][dD][dD][dA][dT][dK][dT][dF][dT][dV][dT][dE]; not fully specified) [RFX025],melting temperature (Tm),[3],66.6 °C
same,binding to D-VEGF in presence of denaturant,D-VEGF [4],bind specifically
TYKLILNGKTLKGETTTEAVDFYYAFSVFFSYASSNSSDYVSWTYDDATKTFTVTE [Clone B03],"phage binding to L-VEGF in the presence of D-peptides (D-v114, D-v128a)",L-VEGF,do not inhibit
TYKMILNGKTLKSECTTEAVDLFDAFDVLFVCAASNFSFIDDWTYDDATKTFTVTE ([dT][dY][dK][dM][dI][dL][dN]G[dK][dT][dL][dK][dS][dE][dC][dT][dT][dE][dA][dV][dD][dL][dF][dD][dA][dF][dD][dV][dL][dF][dV][dC][dA][dA][dS][dN][dF][dS][dF][dI][dD][dD][dW][dT][dY][dD][dD][dA][dT][dK][dT][dF][dT][dV][dT][dE]; disulfide 15-32 (inferred); not fully specified) [RFX002],melting temperature (Tm),[3],66.9 °C
same,binding to D-VEGF in presence of denaturant,D-VEGF [4],bind specifically
